Reference: PubChem BioAssay (NCI)
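Where inhibition never reached the appropriate level, the endpoint shown equals the highest concentration tested. Otherwise, values were interpolated linearly from a five-concentration, 48-hour dose response in 96-well plates. GI50: concentration for 50% inhibition of growth. TGI is the concentration that stops growth completely.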

Assays:
Assay in all cases: inhibition of tumour cell growth, NCI panel, 48 h
[1] = system: MOLT-4 leukemia
[2] = system: HOP-62 NSCLC
[3] = system: NCI-H226 lung
[4] = system: TK-10 renal
[5] = system: ACHN renal
[6] = system: SF-295 CNS
[7] = system: UACC-62 melanoma
[8] = system: 786-0 renal
[9] = system: SK-MEL-5 melanoma
[10] = system: RXF 393 renal

## C=CCc1cc2cccc(OC)c2oc1=O
[1]
  TGI: > 100 µM
[2]
  TGI: > 100 µM
[3]
  TGI: > 100 µM
[4]
  TGI: > 100 µM
[5]
  TGI: > 100 µM
[6]
  TGI: > 100 µM
[7]
  TGI: > 100 µM
[8]
  TGI: > 100 µM
[9]
  TGI: > 100 µM

## Cc1cc(S(=O)(=O)Nc2nc(N)nc(N3N=CCC3C)n2)c(S)cc1Cl (configuration not stated)
[1]
  TGI: > 10 µM
[10]
  TGI: > 10 µM
[2]
  TGI: > 10 µM
[3]
  TGI: > 10 µM
[4]
  TGI: > 10 µM
[5]
  TGI: > 10 µM
[6]
  TGI: > 10 µM
[8]
  TGI: > 10 µM
[9]
  TGI: > 10 µM

## Cc1cc2c(CC(=O)O)[nH]nc2c(C(=O)O)c1C
[1]
  TGI: > 100 µM
[10]
  TGI: > 100 µM
[2]
  TGI: > 100 µM
[3]
  TGI: > 100 µM
[4]
  TGI: > 100 µM
[5]
  TGI: > 100 µM
[6]
  TGI: > 100 µM
[7]
  TGI: > 100 µM
[8]
  TGI: > 100 µM

## O=C(Nc1ccc(Cl)cc1)Nc1ccc(Cl)c(Cl)c1
[1]
  GI50: 2.65 µM
  TGI: > 100 µM
[2]
  GI50: 4.7 µM
  TGI: > 100 µM
[4]
  GI50: 7.64 µM
  TGI: > 100 µM
[5]
  GI50: 3.71 µM
  TGI: > 100 µM
[6]
  GI50: 4.02 µM
  TGI: > 100 µM
[7]
  GI50: 5.59 µM
  TGI: > 100 µM
[8]
  GI50: 4.43 µM
  TGI: > 100 µM
[9]
  GI50: 1.72 µM
  TGI: 3.42 µM

## COc1ccc2c(c1)sc1nc(-c3ccccc3)c(-c3ccsc3)n12
[1]
  GI50: 4.24 µM
  TGI: > 100 µM
[2]
  GI50: 7.86 µM
  TGI: > 100 µM
[3]
  GI50: 2.17 µM
  TGI: 18.1 µM
[4]
  GI50: 37.7 µM
  TGI: > 100 µM
[5]
  GI50: 6.76 µM
  TGI: > 100 µM
[6]
  GI50: 3.06 µM
  TGI: > 100 µM
[7]
  GI50: 3.52 µM
  TGI: > 100 µM
[8]
  GI50: 7.58 µM
  TGI: > 100 µM
[9]
  GI50: 3.34 µM
  TGI: 47.4 µM

## C=CCn1c(C)nc2cc(Nc3nc(Nc4ccc5nc(C)n(CC=C)c5c4)c4ccccc4n3)ccc21
[1]
  GI50: 0.229 µM
  TGI: 0.629 µM
[10]
  GI50: 0.354 µM
  TGI: 1.37 µM
[3]
  GI50: 2.02 µM
  TGI: 4.77 µM
[4]
  GI50: 0.78 µM
  TGI: 2.1 µM
[5]
  GI50: 0.292 µM
  TGI: 1.01 µM
[6]
  GI50: 1.19 µM
  TGI: 2.56 µM
[8]
  GI50: 0.312 µM
  TGI: 1.08 µM
[9]
  GI50: 1.36 µM
  TGI: 2.64 µM

## Cc1nc(N)sc1C(=O)/C=C/c1ccc(/C=C/C(=O)c2sc(NC(=O)CCCCCCCCC(=O)Nc3nc(C)c(C(=O)/C=C/c4ccc(/C=C/C(=O)c5sc(N)nc5C)cc4)s3)nc2C)cc1
[1]
  TGI: > 100 µM
[10]
  TGI: > 100 µM
[2]
  TGI: > 100 µM
[4]
  TGI: > 100 µM
[5]
  TGI: > 100 µM
[6]
  TGI: > 100 µM
[7]
  TGI: 87.8 µM
[8]
  TGI: > 100 µM

## CC(=O)NC1=N/C(=C/c2cc([N+](=O)[O-])ccc2O)CN1C
[1]
  TGI: > 100 µM
[2]
  TGI: > 100 µM
[3]
  TGI: > 100 µM
[4]
  TGI: > 100 µM
[5]
  TGI: > 100 µM
[6]
  TGI: > 100 µM
[7]
  TGI: > 100 µM
[8]
  TGI: > 100 µM
[9]
  TGI: > 100 µM

## O=[N+]([O-])c1c(/C=N/Nc2ccccc2)oc(-c2ccc3c(c2)OCO3)c1-c1ccc2c(c1)OCO2
[10]
  TGI: > 100 µM
[2]
  TGI: > 100 µM
[3]
  TGI: > 100 µM
[4]
  TGI: > 100 µM
[5]
  TGI: > 100 µM
[6]
  TGI: > 100 µM
[7]
  TGI: > 100 µM
[8]
  TGI: > 100 µM

## CC(=O)O[C@H]1C(N(C)C(=O)c2ccccc2)CC[C@]2(C)C3CC[C@@]4(C)C(CC(O)[C@@H]4C(C)N(C)C)[C@@H]3CCC12 (some centres not stated)
[1]
  TGI: > 100 µM
[2]
  TGI: > 100 µM
[3]
  TGI: > 100 µM
[4]
  TGI: > 100 µM
[5]
  TGI: > 100 µM
[6]
  TGI: > 100 µM
[7]
  TGI: > 100 µM
[8]
  TGI: > 100 µM
[9]
  TGI: > 100 µM

## CCOC(=O)CCC(=O)C1c2cccc(O)c2C(=O)c2c(O)cccc21
[1]
  TGI: 13.7 µM
[10]
  TGI: 2.08 µM
[2]
  TGI: 3.8 µM
[4]
  TGI: 4.76 µM
[5]
  TGI: 2.9 µM
[6]
  TGI: 1.95 µM
[7]
  TGI: 1.42 µM
[8]
  TGI: 3.26 µM
[9]
  TGI: 1.4 µM

## CCN(CC)CCn1c2c3ccccc3ccc2c2oc(=O)c3ccccc3c21
[2]
  TGI: 80.3 µM
[4]
  TGI: > 100 µM
[5]
  TGI: > 100 µM
[6]
  TGI: > 100 µM
[7]
  TGI: > 100 µM
[8]
  TGI: 58.5 µM

## N#CCCc1nc2ccc(Br)cc2c(=O)n1CCO
[1]
  TGI: > 100 µM
[10]
  TGI: > 100 µM
[2]
  TGI: > 100 µM
[3]
  TGI: > 100 µM
[4]
  TGI: > 100 µM
[6]
  TGI: > 100 µM
[7]
  TGI: > 100 µM
[8]
  TGI: > 100 µM
[9]
  TGI: > 100 µM

## O=c1cc(-c2ccccc2)[nH]c2cccc(S)c12
[1]
  TGI: > 100 µM
[10]
  TGI: 0.469 µM
[2]
  TGI: > 100 µM
[3]
  TGI: 98.7 µM
[5]
  TGI: > 100 µM
[6]
  TGI: 0.389 µM
[7]
  TGI: > 100 µM
[8]
  TGI: > 100 µM
[9]
  TGI: > 100 µM

## O=C1C(Br)=C[C@H]2C3C=CC(Br)(C3=O)[C@@H]12 (some centres not stated)
[1]
  TGI: 27.2 µM
[10]
  TGI: 27.3 µM
[2]
  TGI: 92.5 µM
[3]
  TGI: 40.9 µM
[5]
  TGI: 34.3 µM
[6]
  TGI: 51 µM
[7]
  TGI: 14.9 µM
[8]
  TGI: 48.2 µM
[9]
  TGI: 27.2 µM

## c1cnc2c(c1)-n1cccc1C1(CCSCC1)NN2
[1]
  TGI: > 100 µM
[2]
  TGI: > 100 µM
[3]
  TGI: > 100 µM
[4]
  TGI: > 100 µM
[5]
  TGI: > 100 µM
[6]
  TGI: > 100 µM
[8]
  TGI: > 100 µM
[9]
  TGI: > 100 µM

## Cc1cc2nc3c(=O)n(C)c(=O)nc-3n(-c3ccc(Cl)cc3)c2cc1C
[1]
  TGI: 32.8 µM
[2]
  TGI: 65.1 µM
[3]
  TGI: 37.6 µM
[4]
  TGI: 92 µM
[5]
  TGI: 24.7 µM
[6]
  TGI: 26.1 µM
[7]
  TGI: 10.6 µM
[8]
  TGI: 43.3 µM
[9]
  TGI: 4.14 µM

## NC(=O)c1c[se]c(C2OC(CO)C(O)C2O)n1 (configuration not stated)
[1]
  TGI: > 49 µM
[2]
  TGI: > 100 µM
[3]
  TGI: > 100 µM
[4]
  TGI: > 100 µM
[5]
  TGI: > 100 µM
[6]
  TGI: > 49.8 µM
[7]
  TGI: > 100 µM
[8]
  TGI: > 100 µM
[9]
  TGI: > 100 µM

## CCOc1ccccc1NC(=O)/C=C1\NC(=O)CS1
[1]
  TGI: > 100 µM
[10]
  TGI: > 100 µM
[2]
  TGI: > 100 µM
[3]
  TGI: > 100 µM
[4]
  TGI: > 100 µM
[6]
  TGI: > 100 µM
[7]
  TGI: > 100 µM
[8]
  TGI: > 100 µM
[9]
  TGI: > 100 µM

## COC(=O)CCC/C=C\C[C@H]1C=CC(=O)/C1=C/C[C@@H](O)CCc1cccc(C(F)(F)F)c1
[1]
  GI50: 2.29 µM
  TGI: 6.46 µM
[10]
  GI50: 2.08 µM
  TGI: 3.79 µM
[2]
  GI50: 3.32 µM
  TGI: 9.15 µM
[4]
  GI50: 4.49 µM
  TGI: 12.4 µM
[5]
  GI50: 1.83 µM
  TGI: 3.54 µM
[6]
  GI50: 2.12 µM
  TGI: 5.21 µM
[7]
  GI50: 2.16 µM
  TGI: 5.48 µM
[8]
  GI50: 2.46 µM
  TGI: 5.57 µM
[9]
  GI50: 1.73 µM
  TGI: 3.2 µM

## S=C(Nc1ccc(-c2nc3ccccc3[nH]2)cc1)NC1CCCCC1
[1]
  GI50: 28.3 µM
  TGI: > 100 µM
[10]
  GI50: 15.5 µM
  TGI: 74 µM
[2]
  GI50: 55.7 µM
  TGI: > 100 µM
[3]
  GI50: 19.6 µM
  TGI: 48.9 µM
[4]
  GI50: 22.8 µM
  TGI: 80.6 µM
[5]
  GI50: 18.1 µM
  TGI: 42.2 µM
[6]
  GI50: 7.06 µM
  TGI: 30.3 µM
[7]
  GI50: 15.3 µM
[8]
  GI50: 33.2 µM
